Here are results for 24 compounds from patent US11987588B2, “Modulators of the beta-3 adrenergic receptor useful for the treatment or prevention of heart failure and disorders related thereto” (Arena Pharmaceuticals, Inc., priority 2017, dated 2024).

The experiment concerns the target Beta-3 Adrenergic Receptor (Homo sapiens (Human), UniProt P13945). The experiment can be described thus: Homogeneous Time-Resolved Fluorescence (HTRF) cAMP antagonist assay, IC50 determination. It is filed as cell-based. The conditions noted are these: CHO-K1 cells stably expressing recombinant receptor, isoproterenol at EC90. Put shortly:
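CHO-K1 cells stably expressing the recombinant receptor were preincubated with compound (10-point, 5-fold dilutions; top final typically 10 or 100 μM) in PBS with 1 mM IBMX, then stimulated with isoproterenol at its EC90 for 1 h at room temperature. cAMP was read by HTRF against an on-plate standard curve.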
(Time-resolved FRET reads energy transfer from a long-lived donor to a nearby acceptor.)

Chain of Beta-3 Adrenergic Receptor (P13945 whole entry, species assumed): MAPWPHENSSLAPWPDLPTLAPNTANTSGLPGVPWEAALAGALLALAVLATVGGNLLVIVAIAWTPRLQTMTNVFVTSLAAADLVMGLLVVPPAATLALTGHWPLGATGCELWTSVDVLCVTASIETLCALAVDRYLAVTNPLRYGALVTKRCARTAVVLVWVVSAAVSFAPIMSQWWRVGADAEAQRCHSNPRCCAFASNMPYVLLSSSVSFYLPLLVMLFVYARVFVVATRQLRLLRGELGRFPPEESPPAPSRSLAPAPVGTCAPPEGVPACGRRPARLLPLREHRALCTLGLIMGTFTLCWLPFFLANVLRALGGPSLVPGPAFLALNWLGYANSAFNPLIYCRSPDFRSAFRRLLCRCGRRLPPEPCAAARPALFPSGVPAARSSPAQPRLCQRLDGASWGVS

For the compound `CN(C)S(=O)(=O)c1cccc(OC[C@@H](O)CNC2COC3(CCN(S(=O)(=O)c4ccc(-c5ccccc5)s4)CC3)C2)c1` (stereo partly drawn) [Compound 255, 3-((2S)-2-hydroxy-3-(8-(5-phenylthiophen-2-ylsulfonyl)-1-oxa-8-azaspiro[4.5]decan-3-ylamino)propoxy)-N,N-dimethylbenzenesulfonamide], the IC50 amounted to 55.1 nM. As to `CNS(=O)(=O)c1cccc(OC[C@@H](O)CNC2COC3(CCN(S(=O)(=O)c4ccc5c(c4)NC(=O)CO5)CC3)C2)c1` (stereo partly drawn) [Compound 126, 3-((2S)-2-hydroxy-3-(8-(3-oxo-3,4-dihydro-2H-benzo[b][1,4]oxazin-6-ylsulfonyl)-1-oxa-8-azaspiro[4.5]decan-3-ylamino)propoxy)-N-methylbenzenesulfonamide], the IC50 stood at 13 nM. On to `CNS(=O)(=O)c1cccc(OC[C@@H](O)CN[C@H]2COC3(CCN(c4ncc(-c5ccccc5)cn4)CC3)C2)c1` [Compound 580, 3-((S)-2-hydroxy-3-((R)-8-(5-phenylpyrimidin-2-yl)-1-oxa-8-azaspiro[4.5]decan-3-ylamino)propoxy)-N-methylbenzenesulfonamide], for which the IC50 worked out at 262 nM. With `CNS(=O)(=O)c1cccc(OC[C@@H](O)CNC2COC3(CCN(S(=O)(=O)c4cc(C)oc4C(F)(F)F)CC3)C2)c1` (stereo partly drawn) [Compound 162, 3-((2S)-2-hydroxy-3-(8-(5-methyl-2-(trifluoromethyl)furan-3-ylsulfonyl)-1-oxa-8-azaspiro[4.5]decan-3-ylamino)propoxy)-N-methylbenzenesulfonamide], the IC50 was 42.6 nM.

For `CNS(=O)(=O)c1cccc(OC[C@@H](O)CNC2COC3(CCN(S(=O)(=O)c4ccc5c(c4)N(C(C)C)CCO5)CC3)C2)c1` (stereo partly drawn) [Compound 334, 3-((2S)-2-hydroxy-3-(8-(4-isopropyl-3,4-dihydro-2H-benzo[b][1,4]oxazin-6-ylsulfonyl)-1-oxa-8-azaspiro[4.5]decan-3-ylamino)propoxy)-N-methylbenzenesulfonamide], the IC50 was 27.3 nM. As to `CNS(=O)(=O)c1cccc(OC[C@@H](O)CN[C@H]2COC3(CCN(S(=O)(=O)c4ccc5[nH]c(=O)[nH]c5c4)CC3)C2)c1` [Compound 499, 3-((S)-2-hydroxy-3-((R)-8-(2-oxo-2,3-dihydro-1H-benzo[d]imidazol-5-ylsulfonyl)-1-oxa-8-azaspiro[4.5]decan-3-ylamino)propoxy)-N-methylbenzenesulfonamide], the IC50 worked out at 73 nM. On to `CNS(=O)(=O)c1cccc(OC[C@@H](O)CNC2COC3(CCN(S(=O)(=O)c4ccc5c(c4)CCO5)CC3)C2)c1` (stereo partly drawn) [Compound 330, 3-((2S)-3-(8-(2,3-dihydrobenzofuran-5-ylsulfonyl)-1-oxa-8-azaspiro[4.5]decan-3-ylamino)-2-hydroxypropoxy)-N-methylbenzenesulfonamide], for which the IC50 is 36.7 nM. On to `CNS(=O)(=O)c1cccc(OC[C@@H](O)CNC2COC3(CCN(S(=O)(=O)c4cccc(-c5cccc(CN(C)C)c5)c4)CC3)C2)c1` (stereo partly drawn) [Compound 105, 3-((2S)-3-(8-(3′-((dimethylamino)methyl)biphenyl-3-ylsulfonyl)-1-oxa-8-azaspiro[4.5]decan-3-ylamino)-2-hydroxypropoxy)-N-methylbenzenesulfonamide], for which the IC50 is 31.2 nM.

Consider `CNS(=O)(=O)c1cccc(OC[C@@H](O)CN[C@H]2COC3(CCN(S(=O)(=O)c4cnc5c(c4)N(C)CC4(CC4)O5)CC3)C2)c1` [Compound 474, 3-((S)-2-hydroxy-3-((R)-8-(1′-methyl-1′,2′-dihydrospiro[cyclopropane-1,3′-pyrido[2,3-b][1,4]oxazine]-7′-ylsulfonyl)-1-oxa-8-azaspiro[4.5]decan-3-ylamino)propoxy)-N-methylbenzenesulfonamide], for which the IC50 was found to be 44.2 nM. To `CNS(=O)(=O)c1cccc(OC[C@@H](O)CN[C@H]2COC3(CCN(S(=O)(=O)c4cnc5c(c4)OCCN5)CC3)C2)c1` [Compound 500, 3-((S)-3-((R)-8-(3,4-dihydro-2H-pyrido[3,2-b][1,4]oxazin-7-ylsulfonyl)-1-oxa-8-azaspiro[4.5]decan-3-ylamino)-2-hydroxypropoxy)-N-methylbenzenesulfonamide] belongs 28.8 nM; to `CNS(=O)(=O)c1cccc(OC[C@@H](O)CNC2COC3(CCN(S(=O)(=O)c4cccc(-c5cn(C)c(=O)n(C)c5=O)c4)CC3)C2)c1` (stereo partly drawn) [Compound 113, 3-((2S)-3-(8-(3-(1,3-dimethyl-2,4-dioxo-1,2,3,4-tetrahydropyrimidin-5-yl)phenylsulfonyl)-1-oxa-8-azaspiro[4.5]decan-3-ylamino)-2-hydroxypropoxy)-N-methylbenzenesulfonamide], 213 nM; to `CNS(=O)(=O)c1cccc(OC[C@@H](O)CN[C@H]2COC3(CCN(S(=O)(=O)c4cnc5c(c4)N(C)CCCO5)CC3)C2)c1` [Compound 487, 3-((S)-2-hydroxy-3-((R)-8-(1-methyl-1,2,3,4-tetrahydropyrido[2,3-b][1,4]oxazepin-8-ylsulfonyl)-1-oxa-8-azaspiro[4.5]decan-3-ylamino)propoxy)-N-methylbenzenesulfonamide], 25.2 nM.

In the case of `CNS(=O)(=O)c1cccc(OC[C@@H](O)CNC2COC3(CCN(S(=O)(=O)c4ccc(C(=O)N(C)C)cc4)CC3)C2)c1` (stereo partly drawn) [Compound 24, 4-(3-((S)-2-hydroxy-3-(3-(N-methylsulfamoyl)phenoxy)propylamino)-1-oxa-8-azaspiro[4.5]decan-8-ylsulfonyl)-N,N-dimethylbenzamide], the half-inhibitory concentration (IC50) came out at 106 nM. Consider `CNS(=O)(=O)c1cccc(OC[C@@H](O)CNC2COC3(CCN(S(=O)(=O)c4cccc(-c5sccc5C)c4)CC3)C2)c1` (stereo partly drawn) [Compound 116, 3-((2S)-2-hydroxy-3-(8-(3-(3-methylthiophen-2-yl)phenylsulfonyl)-1-oxa-8-azaspiro[4.5]decan-3-ylamino)propoxy)-N-methylbenzenesulfonamide], for which the IC50 came to 23.5 nM. On to `CNS(=O)(=O)c1cccc(OC[C@@H](O)CNC2COC3(CCN(S(=O)(=O)c4cccc(-c5cccc(C#N)c5)c4)CC3)C2)c1` (stereo partly drawn) [Compound 72, 3-((2S)-3-(8-(3′-cyanobiphenyl-3-ylsulfonyl)-1-oxa-8-azaspiro[4.5]decan-3-ylamino)-2-hydroxypropoxy)-N-methylbenzenesulfonamide], for which the IC50 was 28.7 nM.

`CCn1cc(-c2cccc(S(=O)(=O)N3CCC4(CC3)CC(NC[C@H](O)COc3cccc(S(=O)(=O)N(C)C)c3)CO4)c2)cn1` (stereo partly drawn) [Compound 272, 3-((2S)-3-(8-(3-(1-ethyl-1H-pyrazol-4-yl)phenylsulfonyl)-1-oxa-8-azaspiro[4.5]decan-3-ylamino)-2-hydroxypropoxy)-N,N-dimethylbenzenesulfonamide]: the IC50 came out at 107 nM. The figure for `CNS(=O)(=O)c1cccc(OC[C@@H](O)CN[C@H]2COC3(CCN(S(=O)(=O)c4ccc5c(c4)CCCO5)CC3)C2)c1` [Compound 184, 3-((S)-3-((R)-8-(chroman-6-ylsulfonyl)-1-oxa-8-azaspiro[4.5]decan-3-ylamino)-2-hydroxypropoxy)-N-methylbenzenesulfonamide] is 11.9 nM.

As to `CNS(=O)(=O)c1cccc(OC[C@@H](O)CNC2COC3(CCN(S(=O)(=O)c4ccc(Cl)c5nonc45)CC3)C2)c1` (stereo partly drawn) [Compound 185, 3-((2S)-3-(8-(7-chlorobenzo[c][1,2,5]oxadiazol-4-ylsulfonyl)-1-oxa-8-azaspiro[4.5]decan-3-ylamino)-2-hydroxypropoxy)-N-methylbenzenesulfonamide], the IC50 is 7.25 nM. In the case of `CNS(=O)(=O)c1cccc(OC[C@@H](O)CNC2COC3(CCN(S(=O)(=O)c4cccc(-c5ccc(CNC(=O)CC(=O)O)cc5)c4)CC3)C2)c1` (stereo partly drawn) [Compound 352, 3-((3′-(3-((S)-2-hydroxy-3-(3-(N-methylsulfamoyl)phenoxy)propylamino)-1-oxa-8-azaspiro[4.5]decan-8-ylsulfonyl)biphenyl-4-yl)methylamino)-3-oxopropanoic acid], the IC50 is 167 nM.

On to `CNS(=O)(=O)c1cccc(OC[C@@H](O)CNC2COC3(CCN(S(=O)(=O)c4cccc(-c5cccc(N(C)C)c5)c4)CC3)C2)c1` (stereo partly drawn) [Compound 83, 3-((2S)-3-(8-(3′-(dimethylamino)biphenyl-3-ylsulfonyl)-1-oxa-8-azaspiro[4.5]decan-3-ylamino)-2-hydroxypropoxy)-N-methylbenzenesulfonamide], for which the IC50 came out at 99.9 nM. On to `CNS(=O)(=O)c1cccc(OC[C@@H](O)CNC2COC3(CCN(S(=O)(=O)c4ccc(Cl)cc4Cl)CC3)C2)c1` (stereo partly drawn) [Compound 158, 3-((2S)-3-(8-(2,4-dichlorophenylsulfonyl)-1-oxa-8-azaspiro[4.5]decan-3-ylamino)-2-hydroxypropoxy)-N-methylbenzenesulfonamide], for which the IC50 is 25.6 nM. Regarding `CNS(=O)(=O)c1cccc(OC[C@@H](O)CNC2COC3(CCN(S(=O)(=O)c4ccc5c(ccn5C)c4)CC3)C2)c1` (stereo partly drawn) [Compound 221, 3-((2S)-2-hydroxy-3-(8-(1-methyl-1H-indol-5-ylsulfonyl)-1-oxa-8-azaspiro[4.5]decan-3-ylamino)propoxy)-N-methylbenzenesulfonamide], the IC50 came to 9.58 nM. Consider `CNS(=O)(=O)c1cccc(OC[C@@H](O)CN[C@H]2COC3(CCN(S(=O)(=O)c4cccc(-c5ccc(CN)cc5)c4)CC3)C2)c1` [Compound 289, 3-((S)-3-((R)-8-(4′-(aminomethyl)biphenyl-3-ylsulfonyl)-1-oxa-8-azaspiro[4.5]decan-3-ylamino)-2-hydroxypropoxy)-N-methylbenzenesulfonamide], for which the IC50 was found to be 16.5 nM. As for `CNS(=O)(=O)c1cccc(OC[C@@H](O)CN[C@H]2COC3(CCN(S(=O)(=O)c4cnc5ncn(C)c5c4)CC3)C2)c1` [Compound 523, 3-((S)-2-hydroxy-3-((R)-8-(1-methyl-1H-imidazo[4,5-b]pyridin-6-ylsulfonyl)-1-oxa-8-azaspiro[4.5]decan-3-ylamino)propoxy)-N-methylbenzenesulfonamide], the IC50 was found to be 273 nM.

By IC50 is commonly meant the concentration at which inhibition is half-maximal.
